{"source": "paper PMC9535023", "about": "“Inhibition of phospholipase D1 induces immunogenic cell death and potentiates cancer immunotherapy in colorectal cancer” (Experimental & Molecular Medicine, 2022)", "key": {"PLD": {"tested_on": "PLD", "assay": "PLD activity assay in HCT 116 cells", "assay_type": "cell-based", "conditions": "at 10 μM (Fig. 1c)", "description": "(§1) Cells were labeled with [H^3] myristic acid, and PLD activity was assessed by measuring the formation of [H^3] phosphatidylbutanol, which is the product of PLD-mediated transphosphatidylation, in the presence of 1-butanol, as previously described."}, "PLD1": {"molecular_target": "T1, PLD1 (Mus musculus, UniProt Q9Z280)", "T1 construct": "endogenous in cells; host or cells: immortalized Pld2-/- mouse embryonic fibroblasts", "T1 sequence (Q9Z280 1-1074)": "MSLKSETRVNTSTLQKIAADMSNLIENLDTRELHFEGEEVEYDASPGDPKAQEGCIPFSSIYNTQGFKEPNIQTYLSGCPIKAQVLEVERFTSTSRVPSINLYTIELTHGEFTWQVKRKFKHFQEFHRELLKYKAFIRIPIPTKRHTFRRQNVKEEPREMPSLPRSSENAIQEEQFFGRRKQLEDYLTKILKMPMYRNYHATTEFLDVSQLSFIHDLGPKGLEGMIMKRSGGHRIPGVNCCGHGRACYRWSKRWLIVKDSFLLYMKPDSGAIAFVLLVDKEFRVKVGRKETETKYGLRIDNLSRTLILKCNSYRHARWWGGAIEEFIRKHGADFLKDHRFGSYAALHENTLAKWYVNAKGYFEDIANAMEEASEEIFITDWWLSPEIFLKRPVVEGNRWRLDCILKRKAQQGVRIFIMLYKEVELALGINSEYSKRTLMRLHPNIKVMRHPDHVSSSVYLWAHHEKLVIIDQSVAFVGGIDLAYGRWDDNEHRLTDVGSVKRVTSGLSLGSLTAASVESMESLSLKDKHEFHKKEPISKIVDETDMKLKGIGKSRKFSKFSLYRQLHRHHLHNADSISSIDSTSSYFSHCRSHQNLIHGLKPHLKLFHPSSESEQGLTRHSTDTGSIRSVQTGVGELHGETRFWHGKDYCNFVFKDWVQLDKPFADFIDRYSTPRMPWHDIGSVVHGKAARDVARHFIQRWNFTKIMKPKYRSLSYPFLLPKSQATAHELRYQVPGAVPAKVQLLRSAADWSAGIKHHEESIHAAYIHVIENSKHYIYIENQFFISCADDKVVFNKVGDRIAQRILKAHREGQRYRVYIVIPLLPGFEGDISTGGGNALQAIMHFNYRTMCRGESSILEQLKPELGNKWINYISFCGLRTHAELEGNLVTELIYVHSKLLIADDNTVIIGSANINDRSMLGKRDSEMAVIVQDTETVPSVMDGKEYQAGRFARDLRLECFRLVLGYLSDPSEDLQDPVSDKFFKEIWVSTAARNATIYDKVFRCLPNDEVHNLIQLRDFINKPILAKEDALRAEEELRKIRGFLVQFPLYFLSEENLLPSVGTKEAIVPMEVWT", "assay": "PLD1 activity in Pld2−/− MEFs", "assay_type": "cell-based", "description": "as §1\nWe further investigated the effect of A3373 on the enzymatic inhibition of PLD1 and PLD2 in Pld^+/+, Pld1^−/−, and Pld2^−/− MEFs. […] Kinase profiling was used to evaluate the general selectivity of the lead compounds. […] To further investigate whether inhibition of PLD1 by A3373 occurs by binding to PLD1, we first modified A3373 by adding biotinylation instead of the F present in its structure and measured PLD activity."}, "[1]": {"tested_on": "21 purified protein kinases", "assay": "Kinase panel assay (KinaseProfiler)", "assay_type": "biochemical", "conditions": "1 µM A3373", "description": "(§2) Supplementary materials and methods […]\nIn vitro kinase activity assays of A3373 were perfo rmed using the 21 kinase KinaseProfilerTM\n(eurofins). Kinase activity was determined aft er in cubation with 1 µM A3373, acco rding to the\nKinaseProfilerTM Service standard assay protocol s. […]"}, "hERG K^+ channel": {"molecular_target": "T2, hERG K^+ channel (Homo sapiens, UniProt Q12809)", "T2 construct": "expressed in transfected cells; host or cells: HEK293", "T2 sequence (Q12809 whole entry)": "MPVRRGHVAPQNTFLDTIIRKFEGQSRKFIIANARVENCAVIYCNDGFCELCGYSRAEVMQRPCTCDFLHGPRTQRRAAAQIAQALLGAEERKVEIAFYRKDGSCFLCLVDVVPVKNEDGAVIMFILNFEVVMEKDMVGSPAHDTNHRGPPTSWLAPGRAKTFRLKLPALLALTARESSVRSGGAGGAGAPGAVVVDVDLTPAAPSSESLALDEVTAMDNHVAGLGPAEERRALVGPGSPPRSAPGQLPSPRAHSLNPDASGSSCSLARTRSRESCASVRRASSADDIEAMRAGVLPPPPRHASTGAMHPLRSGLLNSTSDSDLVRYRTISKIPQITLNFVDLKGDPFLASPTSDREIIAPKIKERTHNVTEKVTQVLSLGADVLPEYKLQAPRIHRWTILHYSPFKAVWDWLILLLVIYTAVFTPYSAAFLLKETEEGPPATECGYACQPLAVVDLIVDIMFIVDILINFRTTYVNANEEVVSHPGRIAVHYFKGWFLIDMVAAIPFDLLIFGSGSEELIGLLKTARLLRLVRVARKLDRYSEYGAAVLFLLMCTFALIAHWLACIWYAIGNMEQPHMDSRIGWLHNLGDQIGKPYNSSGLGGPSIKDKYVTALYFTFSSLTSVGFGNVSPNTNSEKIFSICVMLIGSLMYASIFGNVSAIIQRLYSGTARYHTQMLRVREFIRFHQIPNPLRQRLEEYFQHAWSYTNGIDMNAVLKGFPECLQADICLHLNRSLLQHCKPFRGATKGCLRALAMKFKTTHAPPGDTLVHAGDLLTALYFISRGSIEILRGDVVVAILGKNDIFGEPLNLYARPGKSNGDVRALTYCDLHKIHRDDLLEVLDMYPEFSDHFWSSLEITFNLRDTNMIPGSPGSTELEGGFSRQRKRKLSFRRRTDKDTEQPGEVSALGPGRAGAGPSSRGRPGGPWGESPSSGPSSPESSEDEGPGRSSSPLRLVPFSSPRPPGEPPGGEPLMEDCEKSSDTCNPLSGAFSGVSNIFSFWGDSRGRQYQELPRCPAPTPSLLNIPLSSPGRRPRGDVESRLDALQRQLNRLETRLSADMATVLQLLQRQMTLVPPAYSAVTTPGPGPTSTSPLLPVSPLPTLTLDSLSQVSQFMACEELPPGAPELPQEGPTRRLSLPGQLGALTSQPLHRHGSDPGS", "assay": "hERG patch-clamp assay in HEK293 cells transfected with hERG", "assay_type": "cell-based", "description": "Both hERG assays were conducted as described previously."}, "DLD1 cells": {"tested_on": "DLD1 cells", "assay": "Apoptosis assay (annexin V flow cytometry), DLD1", "assay_type": "cell-based", "description": "For cell cycle analysis, the cells were treated with Α3373 or 5-FU. The cells were labeled with 10 μΜ bromodeoxyuridine (BrdU) for 2 h. Subsequently, the cells were stained with 7-aminoactinomycin D (7-AAD, Invitrogen) and a fluorescein isothiocyanate (FITC)-conjugated anti-BrdU antibody (Invitrogen). Apoptotic cells were detected using an Annexin V-FITC Apoptosis Detection Kit (BD Biosciences). The cells were analyzed using BD FACSAria III (BD Biosciences), and data analysis was performed using FlowJo v10.0 (BD Biosciences)."}, "HCT116 cells": {"tested_on": "HCT116 cells", "assay": "Flow cytometry of do not eat-me signals and calreticulin", "assay_type": "cell-based"}, "HCT 116 cells": {"tested_on": "HCT 116 cells", "assay": "Immunoblotting of β-catenin and its target genes", "assay_type": "cell-based", "conditions": "time- and dose-dependent, 1% serum", "description": "(§3) As previously described, lysates from cells or colorectal cancer (CRC) tissues were analyzed by immunoprecipitation, and/or Western blotting was performed as described previously. The antibodies used are listed in Supplementary Table 5. A polyclonal anti-PLD antibody that recognizes both PLD1 and PLD2 was generated, as previously described. The use of human CRC tissue samples was approved by the Institutional Review Board of Pusan National University, Korea (PNU IRB/2011-6)."}, "β-catenin/TCF-4 complex": {"tested_on": "β-catenin/TCF-4 complex", "assay": "Immunoprecipitation of β-catenin/TCF-4", "assay_type": "cell-based", "conditions": "2 μM, 12 h, CRC cells", "description": "as §3"}, "CRC cells": {"tested_on": "CRC cells", "assay": "TCF transactivation in CRC cells with an active Wnt pathway", "assay_type": "cell-based"}, "[2]": {"tested_on": "AOM/DSS-induced mouse colon cancer", "assay": "AOM/DSS-induced colitis-associated CRC model", "assay_type": "in vivo", "conditions": "AOM/DSS mice, 10 mg/kg", "description": "as §2\nThe AOM/DSS colorect al cancer model was est ablished using 6 -weeks-old C57BL/6 male mice (Koat ech). Mice were given a single intraperitoneal (IP) injection of the mutagen AOM (10 mg/kg), aft er whi ch t hey were given three periods drinking water contai ning 2.5% DSS for 5 days, followed by 15 days of normal water. AOM/DSS-induced mice were given either vehicle (PBS containing 8% DMSO and 1% Tween 80) or 10 mg/kg A3373 compound every day by oral administration for 45 days. […]"}}}
{"smiles": "O=C(Nc1cc(C(F)(F)F)cc(C(F)(F)F)c1)c1cc2cc(F)ccc2[nH]1", "note": "[Compound A3373]", "values": [{"measurement": "PLD activity remained", "setting": "PLD", "result": 20.6, "unit": "%"}, {"measurement": "PLD1 activity, in words", "setting": "PLD1; 2 μM, Pld−/− MEFs", "result": "suppressed"}, {"measurement": "IC50", "setting": "PLD1; Pld2−/− MEFs", "result": 325, "unit": "nM"}, {"measurement": "effect on activity of 21 purified protein kinases", "setting": "[1]", "result": "no effect"}, {"measurement": "IC50", "setting": "hERG K^+ channel", "result": "> 50000", "unit": "nM"}, {"measurement": "apoptosis of CRC cells, in words", "setting": "DLD1 cells", "result": "significantly promoted the apoptosis of CRC cells alone"}, {"measurement": "cell-surface CRT expression, in words", "setting": "HCT116 cells", "result": "increased cell-surface CRT expression"}, {"measurement": "levels of do not eat-me signals, in words", "setting": "HCT116 cells; CRC cells, flow cytometry", "result": "significantly reduced the levels of the “do not eat-me” signals"}, {"measurement": "protein levels of β-catenin and its target genes (PLD1, CD133, CD44, c-Myc, cyclin D1)", "setting": "HCT 116 cells", "result": "greatly reduced the protein levels of β-catenin and its target genes"}, {"measurement": "endogenous interaction between β-catenin and TCF-4", "setting": "β-catenin/TCF-4 complex", "result": "disrupted the endogenous interaction between β-catenin and TCF-4"}, {"measurement": "TCF transactivation in CRC cells", "setting": "CRC cells", "result": "significantly suppressed TCF transactivation"}, {"measurement": "CD8 expression (IHC)", "setting": "[2]", "result": "increased the expression level of CD8"}, {"measurement": "active caspase-3, Ki67 and CD31 in tumor tissues (IHC)", "setting": "[2]", "result": "increased the level of active caspase-3 and decreased the levels of Ki67 and CD31"}, {"measurement": "do not eat-me and eat-me signals in tumor tissues (IHC)", "setting": "[2]", "result": "decreased the expression of “do not eat-me” signals but increased that of “eat-me” signals"}, {"measurement": "immune checkpoints (PD1, B7H4) and Foxp3 (IHC)", "setting": "[2]", "result": "reduced the expression of immune checkpoints (PD1 and B7H4) and Foxp3"}, {"measurement": "mortality", "setting": "[2]", "result": "significantly lower"}, {"measurement": "number of intestinal polyps", "setting": "[2]", "result": "significantly lower"}, {"measurement": "tumor formation", "setting": "[2]", "result": "attenuated the tumor formation"}, {"measurement": "β-catenin and downstream target proteins (IHC)", "setting": "[2]", "result": "suppressed the levels of β-catenin and its downstream target proteins"}]}
